Key:
[1] = target: T1, Retinoic acid receptor beta (Homo sapiens) (UniProt P10826); test: Agonist activity at human RARbeta expressed in human MG63 cells co-transfected with RARE3-SV40-Luc assessed as transcriptional efficacy at 10^-6 M after 2 days by luciferase reporter gene assay realtive to 9-cis-retinoic acid; format: functional, cell-based; settings: MG-63
T1 sequence (whole entry): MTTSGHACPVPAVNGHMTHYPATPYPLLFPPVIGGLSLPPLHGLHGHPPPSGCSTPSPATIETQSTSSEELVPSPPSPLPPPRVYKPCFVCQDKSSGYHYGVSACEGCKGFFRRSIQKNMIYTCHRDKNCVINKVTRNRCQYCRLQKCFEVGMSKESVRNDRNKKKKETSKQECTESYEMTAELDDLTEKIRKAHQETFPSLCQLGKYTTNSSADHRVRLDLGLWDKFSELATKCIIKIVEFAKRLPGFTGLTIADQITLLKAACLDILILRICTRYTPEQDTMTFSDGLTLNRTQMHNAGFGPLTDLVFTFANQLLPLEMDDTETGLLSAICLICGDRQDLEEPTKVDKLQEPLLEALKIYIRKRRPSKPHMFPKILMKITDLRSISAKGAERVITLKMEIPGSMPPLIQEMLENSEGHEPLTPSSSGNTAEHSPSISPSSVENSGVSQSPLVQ

[2] = target: T2, Cellular retinoic acid-binding protein 2 (Rattus norvegicus) (UniProt P51673); test: Agonist activity at rat CRABP2 expressed in human MG63 cells co-transfected with RXRE-SV40-Luc assessed as transcriptional efficacy at 10^-6 M after 2 days by luciferase reporter gene assay realtive to 9-cis-retinoic acid; format: functional, cell-based; settings: MG-63
T2 sequence (whole entry): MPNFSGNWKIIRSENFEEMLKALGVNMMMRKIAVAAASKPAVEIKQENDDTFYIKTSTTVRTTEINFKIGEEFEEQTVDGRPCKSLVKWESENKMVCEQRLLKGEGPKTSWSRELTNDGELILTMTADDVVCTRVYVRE

Row | SMILES | Ratio [1] | Ratio [2]
1 | CC(C)=C1CC[C@@H](C)C=C1/C=C/C(C)=C\C=C\C(C)=C\C(=O)O | 0.5 | 1.5
2 | CC(C)=C1CC[C@H](C)C=C1/C=C/C(C)=C\C=C\C(C)=C\C(=O)O | 0.32 | 2.06
3 | CC(=C/C=C/C(C)=C/C(=O)O)/C=C/C1=CC2CC[C@]1(C)C2(C)C (single isomer, unassigned) | 1.99 | 0.66
4 | C=C(C)[C@H]1CC[C@H](C)C=C1/C=C/C(C)=C\C=C\C(C)=C\C(=O)O | 1.33 | 1.76
5 | CC(=C/C=C/C(C)=C/C(=O)O)/C=C/C1=C[C@]2(C(C)C)C[C@@H]2[C@H]1C | 1.03 | 2.52
6 | C=C(C)[C@@H]1CC[C@@H](C)C=C1/C=C/C(C)=C\C=C\C(C)=C\C(=O)O | 0.35 | 1.07
7 | C/C(=C/C=C/C(C)=C/C(=O)O)C1=C[C@H](C)CC[C@H]1C(C)C | 0.14 | 0.37
8 | C/C(=C/C=C/C(C)=C/C(=O)O)C1=C[C@H]2CC[C@]1(C)C2(C)C | 0.04 | 0.18
9 | CC(=C/C=C/C(C)=C/C(=O)O)/C=C/C1=C[C@H]2C[C@@H]([C@@H]1C)C2(C)C | 1.48 | 0.52
10 | CC(=C/C=C/C(C)=C/C(=O)O)/C=C/C1=C[C@@H]2C[C@H]([C@H]1C)C2(C)C | 0.89 | 1.3
11 | C/C(=C/C=C/C(C)=C/C(=O)O)C1=CC(C)(C)[C@@]23CC[C@@H](C2)C(C)(C)C3=C1 | 0.98 | 0.71
12 | CC(=C/C=C/C(C)=C/C(=O)O)/C=C/C1=C[C@@H](C)CC[C@@H]1C(C)C | 0.38 | 1.37
13 | CC(=C/C=C/C(C)=C/C(=O)O)/C=C/C1=CC[C@H]2C[C@@H]1C2(C)C | 1.92 | 2.42
14 | CC(=C/C=C/C(C)=C/C(=O)O)/C=C/C1=C[C@H](C)CC[C@H]1C(C)C | 0.25 | 1.12
15 | CC(=C/C=C/C(C)=C/C(=O)O)/C=C/C1=C[C@@H]2CC[C@@]1(C)C2(C)C | 1.36 | 2.34
16 | C=C(C)[C@@H]1CCC2=CC(\C(C)=C/C=C/C(C)=C/C(=O)O)=CC[C@]2(C)[C@H]1C | 0.1 | 0.23

Source: ChEMBL document CHEMBL1772949, “Replacement of the hydrophobic part of 9-cis-retinoic acid with cyclic terpenoid moiety results in RXR-selective agonistic activity” (Bioorg Med Chem, 2011)
